Values after ≈ are worked out from the molar mass of the structure shown. Where two headings read alike, the source gives them in different places.
Columns and labels:
Solubility in PBS = assay type: physicochemical
Outline: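 Read-out is the HPLC peak area of the supernatant from ultracentrifuged PBS solution, scaled against a 50 μM peptide DMSO injection; value reported as [(PBS area)/(DMSO area)]*50 uM.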

[1] = target: T1, full-length beta-Catenin (Uniprot ID P35222) (Homo sapiens, UniProt P35222); assay: Fluorescence polarization IC50 (beta-catenin / 5FAM-TCF4 10-53 competition); assay type: binding; details: fluorescence polarization; read-out: beta-Catenin FP IC50
T1 construct: 10 nM full-length beta-Catenin (Uniprot ID P35222)
T1 sequence (P35222 1-781): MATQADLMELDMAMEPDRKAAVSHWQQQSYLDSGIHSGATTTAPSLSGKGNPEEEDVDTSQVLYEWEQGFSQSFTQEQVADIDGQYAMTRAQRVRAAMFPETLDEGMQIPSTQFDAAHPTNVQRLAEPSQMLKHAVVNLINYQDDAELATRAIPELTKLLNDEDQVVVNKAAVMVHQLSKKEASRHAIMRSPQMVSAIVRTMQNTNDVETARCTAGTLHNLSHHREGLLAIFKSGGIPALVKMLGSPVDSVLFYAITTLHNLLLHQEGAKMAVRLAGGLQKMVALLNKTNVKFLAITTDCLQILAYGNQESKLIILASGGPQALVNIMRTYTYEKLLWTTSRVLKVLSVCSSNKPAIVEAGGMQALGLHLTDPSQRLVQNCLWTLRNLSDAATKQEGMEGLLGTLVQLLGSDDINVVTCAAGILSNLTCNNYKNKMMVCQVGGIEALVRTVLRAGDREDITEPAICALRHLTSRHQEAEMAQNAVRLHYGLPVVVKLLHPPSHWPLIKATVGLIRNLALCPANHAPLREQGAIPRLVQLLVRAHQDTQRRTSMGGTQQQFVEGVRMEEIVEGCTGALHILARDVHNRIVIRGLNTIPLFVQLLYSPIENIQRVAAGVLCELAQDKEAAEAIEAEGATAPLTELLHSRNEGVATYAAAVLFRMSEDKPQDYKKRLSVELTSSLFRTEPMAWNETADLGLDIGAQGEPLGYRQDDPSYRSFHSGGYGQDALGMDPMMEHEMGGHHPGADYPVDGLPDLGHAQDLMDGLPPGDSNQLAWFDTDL

Row | Compound | Solubility (Solubility in PBS; Solubility (uM)) [µM] | IC50 [1] [nM] | Solubility (Solubility in PBS) [µM]
1 | CC(=O)N1CCC[C@H]1C(=O)N[C@@H](CC(=O)O)C(=O)N[C@@H](CC1CCCCC1)C(=O)N[C@]1(C)CCCC=CCCCOC(=O)N2CC[C@@](C(=O)N[C@@H](Cc3ccccc3Cl)C(=O)N[C@@H](Cc3csc4ccccc34)C(=O)N[C@@H](CO)C(N)=O)(C2)NC(=O)[C@H]([C@@H](C)O)NC(=O)[C@H](Cc2ccccc2)NC(=O)[C@H](C)NC(=O)[C@H](C)NC(=O)[C@H](CC(=O)O)NC(=O)[C@H](CC(=O)O)NC1=O [I-1184, Ac-Pro-Asp-Cha-R5-Asp-Asp-Ala-Ala-Phe-Thr-PyrS2-2C1F-BztA-Ser-NH2] | 45 (≈ 83.4 µg/mL) | 176 | 
2 | CC(=O)N1CCC[C@]12CC=CCCCC1(CCCC=CCCCCCC[C@@](C)(C(=O)N[C@@H](Cc3ccccc3Cl)C(=O)N[C@@H](Cc3csc4ccccc34)C(=O)N[C@@H](CO)C(N)=O)NC(=O)[C@H](CC(C)C)NC(=O)[C@H](Cc3ccccc3)NC(=O)[C@H](C)NC(=O)[C@H](C)NC(=O)[C@H](CC(=O)O)NC(=O)[C@H](CC(=O)O)NC1=O)NC(=O)[C@H](CC(C)(C)C)NC(=O)[C@H](CC(=O)O)NC2=O (stereo partly drawn) [I-1189, Ac-PL3-Asp-Npg-B5-Asp-Asp-Ala-Ala-Phe-Leu-S8-2C1F-BztA-Ser-NH2] |  | 94.5 | 10 (≈ 18.6 µg/mL)
3 | CC(=O)N1CCC[C@]12CC=CCCCC1(CCCC=CCCCCCC[C@@](C)(C(=O)N[C@@H](Cc3ccccc3Cl)C(=O)N[C@@H](Cc3csc4ccccc34)C(=O)N[C@@H](Cc3c[nH]nn3)C(N)=O)NC(=O)[C@H](CC(C)C)NC(=O)[C@H](Cc3ccccc3)NC(=O)[C@H](C)NC(=O)[C@H](C)NC(=O)[C@H](CC(=O)O)NC(=O)[C@H](CC(=O)O)NC1=O)NC(=O)[C@H](CC(C)(C)C)NC(=O)[C@H](CC(=O)O)NC2=O (stereo partly drawn) [I-1192, Ac-PL3-Asp-Npg-B5-Asp-Asp-Ala-Ala-Phe-Leu-S8-2C1F-BztA-4TriA-NH2] |  | 81.5 | 10 (≈ 19.1 µg/mL)
4 | CC(=O)N1CCC[C@]12CC=CCCCC1(CCCC=CCCCCCC[C@@](C)(C(=O)N[C@@H](Cc3ccsc3)C(=O)N[C@@H](Cc3csc4ccccc34)C(=O)N[C@@H](Cc3c[nH]nn3)C(N)=O)NC(=O)[C@H](CC(C)C)NC(=O)[C@H](Cc3ccccc3)NC(=O)[C@H](C)NC(=O)[C@H](C)NC(=O)[C@H](CC(=O)O)NC(=O)[C@H](CC(=O)O)NC1=O)NC(=O)[C@H](CC(C)(C)C)NC(=O)[C@H](CC(=O)O)NC2=O (stereo partly drawn) [I-1193, Ac-PL3-Asp-Npg-B5-Asp-Asp-Ala-Ala-Phe-Leu-S8-3Thi-BztA-4TriA-NH2] |  | 78.5 | 10 (≈ 18.8 µg/mL)
5 | CC(=O)N1CCC[C@]12CC=CCCCC1(CCCC=CCCCCCC[C@@](C)(C(=O)N[C@@H](Cc3ccsc3)C(=O)N[C@@H](Cc3csc4ccccc34)C(=O)N[C@@H](CCO)C(N)=O)NC(=O)[C@H](CC(C)C)NC(=O)[C@H](Cc3ccccc3)NC(=O)[C@H](C)NC(=O)[C@H](C)NC(=O)[C@H](CC(=O)O)NC(=O)[C@H](CC(=O)O)NC1=O)NC(=O)[C@H](CC(C)(C)C)NC(=O)[C@H](CC(=O)O)NC2=O (stereo partly drawn) [I-1197, Ac-PL3-Asp-Npg-B5-Asp-Asp-Ala-Ala-Phe-Leu-S8-3Thi-BztA-Hse-NH2] |  | 44 | 10 (≈ 18.5 µg/mL)
6 | CC(=O)N1CCC[C@]12CC=CCCCC1(CCCC=CCCCCCC[C@@](C)(C(=O)N[C@@H](Cc3ccccc3Cl)C(=O)N[C@@H](Cc3csc4ccccc34)C(=O)N[C@H](CCC(N)=O)C(N)=O)NC(=O)[C@H](CC(C)C)NC(=O)[C@H](Cc3ccccc3)NC(=O)[C@H](C)NC(=O)[C@H](C)NC(=O)[C@H](CC(=O)O)NC(=O)[C@H](CC(=O)O)NC1=O)NC(=O)[C@H](CC(C)(C)C)NC(=O)[C@H](CC(=O)O)NC2=O (stereo partly drawn) [I-1198, Ac-PL3-Asp-Npg-B5-Asp-Asp-Ala-Ala-Phe-Leu-S8-2C1F-BztA-dGln-NH2] | 47 (≈ 89.4 µg/mL) | 65 | 

Further compounds by falling IC50 [1], results first:

Row | Solubility (Solubility in PBS; Solubility (uM)) [µM] | IC50 [1] [nM] | Solubility (Solubility in PBS) [µM] | Compound
7 |  | 987 | 50 (≈ 96.8 µg/mL) | CC(=O)N1CCC[C@]12CC=CCCCC1(CCCC=CCCCOC(=O)N3CC[C@@](C(=O)N[C@@H](Cc4ccc(C#N)cc4)C(=O)N[C@@H](Cc4csc5ccccc45)C(=O)N[C@@H](CCC(N)=O)C(N)=O)(C3)NC(=O)[C@H](CC(C)C)NC(=O)[C@H](Cc3ccccc3)NC(=O)[C@H](C)NC(=O)[C@H](C)NC(=O)[C@H](CC(=O)O)NC(=O)[C@H](CC(=O)O)NC1=O)NC(=O)[C@H](CC(C)(C)C)NC(=O)[C@H](CC(=O)O)NC2=O (stereo partly drawn) [I-1205, Ac-PL3-Asp-Npg-B5-Asp-Asp-Ala-Ala-Phe-Leu-PyrS2-4CNF-BztA-Gln-NH2]
8 | 44 (≈ 83.2 µg/mL) | 349 |  | CC(=O)N1CCC[C@]12CC=CCCCC1(CCCC=CCCCOC(=O)N3CC[C@@](C(=O)N[C@@H](Cc4ccsc4)C(=O)N[C@@H](Cc4csc5ccccc45)C(=O)N[C@@H](CCC(N)=O)C(N)=O)(C3)NC(=O)[C@H](CC(N)=O)NC(=O)[C@H](Cc3ccccc3)NC(=O)[C@H](C)NC(=O)[C@H](C)NC(=O)[C@H](CC(=O)O)NC(=O)[C@H](CO)NC1=O)NC(=O)[C@H](CC(C)(C)C)NC(=O)[C@H](CC(=O)O)NC2=O (stereo partly drawn) [I-1208, Ac-PL3-Asp-Npg-B5-Ser-Asp-Ala-Ala-Phe-Asn-PyrS2-3Thi-BztA-Gln-NH2]
9 |  | 85 | 10 (≈ 18.8 µg/mL) | CC(=O)N1CCC[C@]12CC=CCCCC1(CCCC=CCCCCCC[C@@](C)(C(=O)N[C@@H](Cc3ccccc3Cl)C(=O)N[C@@H](Cc3csc4ccccc34)C(=O)N[C@@H](CCO)C(N)=O)NC(=O)[C@H](CC(C)C)NC(=O)[C@H](Cc3ccccc3)NC(=O)[C@H](C)NC(=O)[C@H](C)NC(=O)[C@H](CC(=O)O)NC(=O)[C@H](CC(=O)O)NC1=O)NC(=O)[C@H](CC(C)(C)C)NC(=O)[C@H](CC(=O)O)NC2=O (stereo partly drawn) [I-1196, Ac-PL3-Asp-Npg-B5-Asp-Asp-Ala-Ala-Phe-Leu-S8-2C1F-BztA-Hse-NH2]
10 |  | 81 | 50 (≈ 96.8 µg/mL) | CC(=O)N1CCC[C@]12CC=CCCCC1(CCCC=CCCCOC(=O)N3CC[C@@](C(=O)N[C@@H](Cc4cccc(C#N)c4)C(=O)N[C@@H](Cc4csc5ccccc45)C(=O)N[C@@H](CCC(N)=O)C(N)=O)(C3)NC(=O)[C@H](CC(C)C)NC(=O)[C@H](Cc3ccccc3)NC(=O)[C@H](C)NC(=O)[C@H](C)NC(=O)[C@H](CC(=O)O)NC(=O)[C@H](CC(=O)O)NC1=O)NC(=O)[C@H](CC(C)(C)C)NC(=O)[C@H](CC(=O)O)NC2=O (stereo partly drawn) [I-1204, Ac-PL3-Asp-Npg-B5-Asp-Asp-Ala-Ala-Phe-Leu-PyrS2-3CNF-BztA-Gln-NH2]
11 |  | 66.5 | 10 (≈ 19.1 µg/mL) | CC(=O)N1CCC[C@]12CC=CCCCC1(CCCC=CCCCCCC[C@@](C)(C(=O)N[C@@H](Cc3ccccc3Cl)C(=O)N[C@@H](Cc3csc4ccccc34)C(=O)N[C@@H](Cc3c[nH]cn3)C(N)=O)NC(=O)[C@H](CC(C)C)NC(=O)[C@H](Cc3ccccc3)NC(=O)[C@H](C)NC(=O)[C@H](C)NC(=O)[C@H](CC(=O)O)NC(=O)[C@H](CC(=O)O)NC1=O)NC(=O)[C@H](CC(C)(C)C)NC(=O)[C@H](CC(=O)O)NC2=O (stereo partly drawn) [I-1194, Ac-PL3-Asp-Npg-B5-Asp-Asp-Ala-Ala-Phe-Leu-S8-2C1F-BztA-His-NH2]
12 |  | 58.5 | 10 (≈ 18.3 µg/mL) | CC(=O)N1CCC[C@]12CC=CCCCC1(CCCC=CCCCCCC[C@@](C)(C(=O)N[C@@H](Cc3ccsc3)C(=O)N[C@@H](Cc3csc4ccccc34)C(=O)N[C@@H](CO)C(N)=O)NC(=O)[C@H](CC(C)C)NC(=O)[C@H](Cc3ccccc3)NC(=O)[C@H](C)NC(=O)[C@H](C)NC(=O)[C@H](CC(=O)O)NC(=O)[C@H](CC(=O)O)NC1=O)NC(=O)[C@H](CC(C)(C)C)NC(=O)[C@H](CC(=O)O)NC2=O (stereo partly drawn) [I-1190, Ac-PL3-Asp-Npg-B5-Asp-Asp-Ala-Ala-Phe-Leu-S8-3Thi-BztA-Ser-NH2]
13 | 19 (≈ 35.6 µg/mL) | 44.5 |  | CC(=O)N1CCC[C@]12CC=CCCCC1(CCCC=CCCCCCC[C@@](C)(C(=O)N[C@@H](Cc3ccsc3)C(=O)N[C@@H](Cc3csc4ccccc34)C(=O)N[C@H](CCC(N)=O)C(N)=O)NC(=O)[C@H](CC(C)C)NC(=O)[C@H](Cc3ccccc3)NC(=O)[C@H](C)NC(=O)[C@H](C)NC(=O)[C@H](CC(=O)O)NC(=O)[C@H](CC(=O)O)NC1=O)NC(=O)[C@H](CC(C)(C)C)NC(=O)[C@H](CC(=O)O)NC2=O (stereo partly drawn) [I-1199, Ac-PL3-Asp-Npg-B5-Asp-Asp-Ala-Ala-Phe-Leu-S8-3Thi-BztA-dGln-NH2]
14 |  | 38.5 | 10 (≈ 18.5 µg/mL) | CC(=O)N1CCC[C@]12CC=CCCCC1(CCCC=CCCCCCC[C@@](C)(C(=O)N[C@@H](Cc3ccsc3)C(=O)N[C@@H](Cc3csc4ccccc34)C(=O)N[C@H](C(N)=O)[C@@H](C)O)NC(=O)[C@H](CC(C)C)NC(=O)[C@H](Cc3ccccc3)NC(=O)[C@H](C)NC(=O)[C@H](C)NC(=O)[C@H](CC(=O)O)NC(=O)[C@H](CC(=O)O)NC1=O)NC(=O)[C@H](CC(C)(C)C)NC(=O)[C@H](CC(=O)O)NC2=O (stereo partly drawn) [I-1191, Ac-PL3-Asp-Npg-B5-Asp-Asp-Ala-Ala-Phe-Leu-S8-3Thi-BztA-Thr-NH2]

— patent publication US20240116985A1, “STAPLED PEPTIDES AND METHODS THEREOF” (priority 2020, published 2024)
